Experimental data reported in ChEMBL document CHEMBL5357021, “Novel Triazolopyridine-Based BRD4 Inhibitors as Potent HIV-1 Latency Reversing Agents” (ACS Med Chem Lett, 2024).
The source made the active and inactive calls. No cut-off for these calls is given here.

Key:
[1] = test system: Human immunodeficiency virus 1; test: Anti-HIV activity against HIV-1IIIB acute infected in human C8166 cells assessed as inhibition of p24 expression at 25 nM incubated for 72 hrs by ELISA assay in presence of N-(4-(2,4-difluorophenoxy)-3-(3-methyl-[1,2,4]triazolo[4,3-a]pyridin-6-yl)phenyl)-4-fluorobenzenesulfonamide; assay type: functional, organism-based
[2] = test system: Human immunodeficiency virus 1; test: Anti-HIV activity against HIV-1IIIB acute infected in human C8166 cells assessed as inhibition of p24 expression at 50 nM incubated for 72 hrs by ELISA assay in presence of N-(4-(2,4-difluorophenoxy)-3-(3-methyl-[1,2,4]triazolo[4,3-a]pyridin-6-yl)phenyl)-4-fluorobenzenesulfonamide; assay type: functional, organism-based
[3] = test system: Human immunodeficiency virus 1; test: Reversal of HIV-1 latency in CD4+ T-lymphoid J-Lat cells contains HIV-1 long terminal repeats (LTR)-Tat-GFP assessed as reactivation measured after 48 hrs by flow cytometry; assay type: functional, organism-based; details: Human immunodeficiency virus 1, J-Lat 10.6, 48 h
[4] = Cytotoxicity against human non-infected J-Lat A10.6 cells assessed as cell death by CCK8 assay; assay type: toxicity, cell-based, J-Lat 10.6
[5] = test system: Human immunodeficiency virus 1; test: Reversal of HIV-1 latency in ACH-2 cell line contains complete HIV-1 provirus assessed as reactivation by measuring HIV-1 p24 antigen expression 5 uM measured after 48 hrs by ELISA; assay type: functional, organism-based
[6] = biological target: Bromodomain-containing protein 4 (Homo sapiens) (UniProt O60885); test: Inhibition of BRD4 BD1 domain (unknown origin) at 1 uM by HTRF assay
[7] = biological target: Bromodomain-containing protein 4 (Homo sapiens) (UniProt O60885); test: Inhibition of BRD4 BD2 domain (unknown origin) at 1 uM by HTRF assay
[8] = biological target: Bromodomain-containing protein 4 (Homo sapiens) (UniProt O60885); test: Inhibition of BRD4 phosphorylation in human J-Lat A10.6 cells contains HIV-1 long terminal repeats (LTR)-Tat-GFP at 1 uM measured after 24 hrs by Western blotting analysis; assay type: cell-based; details: J-Lat 10.6
[9] = biological target: Bromodomain-containing protein 4 (Homo sapiens) (UniProt O60885); test: Inhibition of BRD4 in human J-Lat 10.6 cells contains HIV-1 long terminal repeats (LTR)-Tat-GFP assessed as increased CDK9 enrichment in LTR at 1 uM incubated for 6 hrs by ChiP assay; assay type: cell-based
[10] = biological target: Bromodomain-containing protein 4 (Homo sapiens) (UniProt O60885); test: Inhibition of BRD4 in human J-Lat 10.6 cells contains HIV-1 long terminal repeats (LTR)-Tat-GFP assessed as increased RNA pol II enrichment in LTR at 1 uM incubated for 6 hrs by ChiP assay; assay type: cell-based
PBMC [11] = test: Immune hyper-activation in human PBMC cells assessed as CD25 expression at 1 uM measured after 48 hrs by flow cytometry; assay type: toxicity, cell-based
PBMC [12] = test: Immune hyper-activation in human PBMC cells assessed as CD69 expression at 1 uM measured after 48 hrs by flow cytometry; assay type: toxicity, cell-based
PBMC [13] = test: Immune hyper-activation in human PBMC cells assessed as HLA-DR expression at 1 uM measured after 48 hrs by flow cytometry; assay type: toxicity, cell-based
PBMC [14] = test: Immune hyper-activation in human PBMC cells assessed as CD25 expression at 10 uM measured after 48 hrs by flow cytometry; assay type: toxicity, cell-based
PBMC [15] = test: Immune hyper-activation in human PBMC cells assessed as CD69 expression at 10 uM measured after 48 hrs by flow cytometry; assay type: toxicity, cell-based
PBMC [16] = test: Immune hyper-activation in human PBMC cells assessed as HLA-DR expression at 10 uM measured after 48 hrs by flow cytometry; assay type: toxicity, cell-based
[17] = biological target: Bromodomain-containing protein 4 (Homo sapiens) (UniProt O60885); test: Inhibition of BRD4 phosphorylation in human J-Lat A10.6 cells contains HIV-1 long terminal repeats (LTR)-Tat-GFP at 2 to 50 uM measured after 24 hrs by Western blotting analysis; assay type: cell-based; details: J-Lat 10.6, dose 2-50 µM
[18] = biological target: Bromodomain-containing protein 4 (Homo sapiens) (UniProt O60885); test: Inhibition of human BRD4 in J-lat 10.6 cells contains HIV-1 long terminal repeats (LTR)-Tat-GFP assessed as cyclin T1 expression at 2 to 50 uM measured after 24 hrs by Western blot analysis; assay type: cell-based; details: dose 2-50 µM
[19] = biological target: Bromodomain-containing protein 4 (Homo sapiens) (UniProt O60885); test: Inhibition of human BRD4 in J-lat 10.6 cells contains HIV-1 long terminal repeats (LTR)-Tat-GFP assessed as CDK9 expression at 2 to 50 uM measured after 24 hrs by Western blot analysis; assay type: cell-based; details: dose 2-50 µM
[20] = biological target: Bromodomain-containing protein 4 (Homo sapiens) (UniProt O60885); test: Inhibition of human BRD4 in J-lat 10.6 cells contains HIV-1 long terminal repeats (LTR)-Tat-GFP assessed as phosphorylated CDK9 expression at 2 to 50 uM measured after 24 hrs by Western blot analysis; assay type: cell-based; details: dose 2-50 µM
[21] = biological target: Bromodomain-containing protein 4 (Homo sapiens) (UniProt O60885); test: Inhibition of human BRD4 recruitment in J-Lat A10.6 cells contains HIV-1 long terminal repeats (LTR) assessed as reduction of BRD4 and HIV-1 LTR interaction at 10 uM incubated for 6 hrs by CHIP assay; assay type: cell-based; details: J-Lat 10.6
[22] = biological target: Bromodomain-containing protein 4 (Homo sapiens) (UniProt O60885); test: Inhibition of BRD4 in human J-Lat 10.6 cells contains HIV-1 long terminal repeats (LTR)-Tat-GFP assessed as increased CDK9 enrichment in LTR at 10 uM incubated for 6 hrs by ChiP assay; assay type: cell-based
[23] = biological target: Bromodomain-containing protein 4 (Homo sapiens) (UniProt O60885); test: Inhibition of BRD4 in human J-Lat 10.6 cells contains HIV-1 long terminal repeats (LTR)-Tat-GFP assessed as increased RNA pol II enrichment in LTR at 10 uM incubated for 6 hrs by ChiP assay; assay type: cell-based
[24] = test system: Human immunodeficiency virus 1; test: Synergistic reversal of HIV-1 latency in human J-Lat 10.6 cells contains HIV-1 long terminal repeats (LTR)-Tat-GFP assessed as increase in GFP-positive cells by measuring combination index at 10 uM incubated for 48 hrs in presence of Prostratin by flow cytometry; assay type: functional
[25] = Synergistic reversal of HIV-1 latency in human J-Lat 10.6 cells contains HIV-1 long terminal repeats (LTR)-Tat-GFP assessed as increase in GFP-positive cells by measuring combination index at 10 uM incubated for 48 hrs in presence of N1-hydroxy-N8-phenyloctanediamide by flow cytometry; assay type: functional, Human immunodeficiency virus 1
J-Lat 10.6 [26] = test: Reversal of HIV-1 latency in human J-Lat10.6 cells contains HIV-1 long terminal repeats (LTR)-Tat-GFP assessed as reactivation measured at 10 uM after 48 hrs in presence of raltegravir by flow cytometry; assay type: functional, cell-based; details: Human immunodeficiency virus 1
J-Lat 10.6 [27] = test: Reversal of HIV-1 latency in human J-Lat10.6 cells contains HIV-1 long terminal repeats (LTR)-Tat-GFP assessed as reactivation measured at 10 uM after 48 hrs in presence of Efavirenz by flow cytometry; assay type: functional, cell-based; details: Human immunodeficiency virus 1
J-Lat 10.6 [28] = test: Reversal of HIV-1 latency in human J-Lat10.6 cells contains HIV-1 long terminal repeats (LTR)-Tat-GFP assessed as reactivation measured at 10 uM after 48 hrs in presence of darunavir by flow cytometry; assay type: functional, cell-based; details: Human immunodeficiency virus 1
PBMC [29] = test: Cytotoxicity against human PBMC cells assessed as cell viability measured after 48 hrs by MTT assay; assay type: toxicity, cell-based
[30] = Cytotoxicity against human J-Lat A10.6 cells infected with HIV-1 assessed as cell viability measured after 48 hrs by MTT assay; assay type: toxicity, cell-based; details: j-lat 10.6, 48 h
ACH-2 cell line = test: Cytotoxicity against human ACH-2 cell line cells infected with HIV-1 assessed as cell viability measured after 48 hrs by MTT assay; assay type: toxicity, cell-based; details: ach-2, 48 h
[31] = Cytotoxicity against human OM10.1 cells infected with HIV-1 assessed as cell viability measured after 48 hrs by MTT assay; assay type: toxicity, cell-based; details: om10.1, 48 h
[32] = Effect on CXCR4 expression in human PBMC cells at 10 uM incubated for 48 hrs by flow cytometry; assay type: toxicity, cell-based
[33] = Effect on CXCR5 expression in human PBMC cells at 10 uM incubated for 48 hrs by flow cytometry; assay type: toxicity, cell-based
PBMC [34] = test: Effect on CXCR4 expression in human PBMC cells at 1 uM incubated for 48 hrs by flow cytometry; assay type: functional, cell-based
PBMC [35] = test: Effect on CXCR5 expression in human PBMC cells at 1 uM incubated for 48 hrs by flow cytometry; assay type: functional, cell-based
C8166 = test: Anti-HIV activity against HIV-1IIIB acute infected in human C8166 cells assessed as inhibition of p24 expression at 1 nM incubated for 72 hrs by ELISA assay in presence of N-(4-(2,4-difluorophenoxy)-3-(3-methyl-[1,2,4]triazolo[4,3-a]pyridin-6-yl)phenyl)-4-fluorobenzenesulfonamide; assay type: functional, cell-based

For `CC(C)CN(C[C@@H](O)[C@H](Cc1ccccc1)NC(=O)O[C@H]1CO[C@H]2OCC[C@H]21)S(=O)(=O)c1ccc(N)cc1`, the Activity [1] was “Active”.
For `Cc1nnc(C(=O)NC(C)(C)c2nc(C(=O)NCc3ccc(F)cc3)c(O)c(=O)n2C)o1`, the Activity [2] was “Active”.
In the case of `Cc1nnc2ccc(-c3cc(NS(=O)(=O)c4cccs4)ccc3Oc3ccc(F)cc3F)cn12`, the EC50 [3] is reported as 6.6 µM, the CC50 [4] is reported as > 50 µM and the Activity [5] is reported as “Active”. For the same compound, the inhibition [6] was “Active” and the inhibition [7] was “Active”.
With `Cc1csc2c1C(c1ccc(Cl)cc1)=N[C@@H](CC(=O)OC(C)(C)C)c1nncn1-2` (racemic) the inhibition [8] was “Active”, the inhibition [9] was “Active” and the inhibition [10] was “Active”. The Activity [5] was “Active”, the inhibition [6] was “Active” and the inhibition [7] was “Active”. The Activity (PBMC [11]) was “Non-Toxic”, the Activity (PBMC [12]) was “Non-Toxic” and the Activity (PBMC [13]) was “Non-Toxic”.
For `Cc1nnc2ccc(-c3cc(NS(=O)(=O)c4ccc(F)cc4)ccc3Oc3ccc(F)cc3F)cn12`, the EC50 [3] was 1.6 µM, the CC50 [4] was > 50 µM and the Activity (PBMC [14]) was “Non-Toxic”. For the same compound, the Activity (PBMC [15]) was “Non-Toxic”, the Activity (PBMC [16]) was “Non-Toxic” and the inhibition [17] was “Active”. For the same compound, the inhibition [18] was “inactive”, the inhibition [19] was “inactive” and the inhibition [20] was “Active”. The inhibition [21] was “Active”, the inhibition [22] was “Active” and the inhibition [23] was “Active”. For the same compound, the CI [24] was 0.1, the CI [25] was 0.1 and the Activity (J-Lat 10.6 [26]) was “Active”. The Activity (J-Lat 10.6 [27]) was “Active”, the Activity (J-Lat 10.6 [28]) was “Active” and the Activity [5] was “Active”. For the same compound, the Activity (PBMC [29]) was “Non-Toxic”, the Activity [30] was “Non-Toxic” and the Activity (ACH-2 cell line) was “Non-Toxic”. For the same compound, the Activity [31] was “Non-Toxic”, the inhibition [6] was “Active” and the inhibition [7] was “Active”. The Activity [32] was “Not Active”, the Activity [33] was “Not Active” and the Activity (PBMC [34]) was “inactive”. For the same compound, the Activity (PBMC [35]) was “inactive”.
With `O=C1Nc2ccc(Cl)cc2[C@@](C#CC2CC2)(C(F)(F)F)O1` the Activity (C8166) was “Active”.
